Experiments:
MCF7 = test: Growth inhibition of MCF7 cells; format: functional, cell-based; settings: Homo sapiens
Vero = test: Cytotoxicity against Vero cells after 72 hrs; format: cell-based; settings: Chlorocebus sabaeus
Trypanosoma cruzi = test: Growth inhibition of Trypanosoma cruzi recombinant Tulahuen C4; format: functional, organism-based
Plasmodium falciparum = test: Antiplasmodial activity against chloroquine-resistant Plasmodium falciparum W2 Indochina; format: functional, organism-based
Leishmania donovani = test: Growth inhibition of Leishmania donovani MHOM/SD/00-1S after 72 hrs by amastigote assay; format: functional, organism-based

Cc1oc2nc1C(=O)N[C@H](C)c1nc(cs1)C(=O)N[C@H](C(C)C)c1nc(cs1)C(=O)N[C@@H]2C [VENTURAMIDE A]
IC50 (MCF7): 13.1 µM | IC50 (Vero): 86 µM | IC50 (Trypanosoma cruzi): 14.6 µM | IC50 (Plasmodium falciparum): 8.2 µM | IC50 (Leishmania donovani): > 20 µM

Cc1oc2nc1C(=O)N[C@H]([C@@H](C)O)c1nc(cs1)C(=O)N[C@H](C(C)C)c1nc(cs1)C(=O)N[C@@H]2C [VENTURAMIDE B]
IC50 (MCF7): > 54 µM | IC50 (Vero): 56 µM | IC50 (Trypanosoma cruzi): 15.8 µM | IC50 (Plasmodium falciparum): 5.2 µM | IC50 (Leishmania donovani): > 19 µM

— ChEMBL document CHEMBL1142969, “Venturamides A and B: antimalarial constituents of the panamanian marine Cyanobacterium Oscillatoria sp” (J Nat Prod, 2007)
